pIC50: −log10 of the molar value.
Target: T1, GSK3β TYR 216 (Homo sapiens, UniProt P49841)
T1 construct: western blotting of Jurkat cells dosed with the compounds; endogenous in cells; host or cells: Jurkat cells
Experiment: GSK3β p-TYR Inhibition Assay (western blotting of Jurkat cells)
Assay type: cell-based
Conditions: western blot, read-out: GSK3b pTYR 216: IC50
Protocol: Compounds are screened for their ability to inhibit the phosphorylation of tyrosine (TYR) residues through the use of western blotting of Jurkat cells dosed with the compounds. The phosphorylation of the specific TYR residues tested are GSK3α TYR 279 and GSK3β TYR 216.
Jurkat cells are seeded at a density of 2×10^5 cells/well in a 12 well dish in starvation media (RPMI+1% FBS+P/S). Following starvation for 16 hours, the compound is dosed into each well at a final DMSO concentration of 0.3% and cells are incubated o/n at 37° C. 5% CO2. The next day, cells are spun down at 1500 rpm, washed with PBS, and lysed in 100 uL Laemli sample buffer with β-mercaptoethanol.
15 microliters (uL) of cell lysates are loaded onto a 10% tris-glycine gel and run at 120 v for 2 hours or until dye front runs off of the gel. The protein is then transferred onto a PVDF membrane at 100 v for 60 min. PBST (PBS containing 0.1% Tween 20, such as 1 ml Tween per 1 L of PBS) is then made up and used for all washes and antibody incubations. The blot is blocked in 5% nonfat milk PBST for one hour.
The primary antibody (GSK-3α/β pTYR 279/216 at 1:1000 dilution Upstate cat#05-413) is then added in […] PBST overnight at 4° C. with gentle rocking. The blot is then washed in PBST for 5 min. This is then repeated 4 times. […]

T1 sequence (P49841 whole entry): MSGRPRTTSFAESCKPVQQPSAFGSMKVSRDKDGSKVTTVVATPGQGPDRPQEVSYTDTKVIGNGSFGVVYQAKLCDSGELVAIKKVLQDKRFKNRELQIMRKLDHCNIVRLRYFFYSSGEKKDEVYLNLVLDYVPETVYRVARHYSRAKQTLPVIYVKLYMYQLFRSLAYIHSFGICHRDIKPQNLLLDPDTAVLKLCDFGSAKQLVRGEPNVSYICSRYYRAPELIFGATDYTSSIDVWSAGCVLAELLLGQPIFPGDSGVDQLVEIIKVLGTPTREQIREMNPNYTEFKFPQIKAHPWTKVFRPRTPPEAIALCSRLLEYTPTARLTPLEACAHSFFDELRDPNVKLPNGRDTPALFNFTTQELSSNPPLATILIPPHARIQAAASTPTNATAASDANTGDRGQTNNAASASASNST

Work on Cc1nc(-c2ccccc2Cl)nc(Nc2n[nH]c3ncc(F)cc23)c1C [Compound I-1, N-(2-(2-chlorophenyl)-5,6-dimethylpyrimidin-4-yl)-5-fluoro-1H-pyrazolo[3,4-b]pyridin-3-amine] yielded a pIC50 of 8.52.

From patent publication US8518953B2, “Aminopyrimidines useful as inhibitors of protein kinases” (Vertex Pharmaceuticals Incorporated, priority 2007, dated 2013)
